# Test results published in PubChem BioAssay (NCI).
#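 Interpolation was linear, between the two tested concentrations surrounding the appropriate level; five concentrations were tested over 48 hours in 96-well plates. Definition used: TGI = concentration required for complete inhibition of growth.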
# Assays:
# Test in all cases: growth of human tumour cells (NCI), 48 h
# SW-620 colon = tested on: SW-620 colon
# OVCAR-8 ovarian = tested on: OVCAR-8 ovarian
# OVCAR-5 ovarian = tested on: OVCAR-5 ovarian
# BT-549 breast = tested on: BT-549 breast
# CCRF-CEM leukemia = tested on: CCRF-CEM leukemia
# LOX IMVI melanoma = tested on: LOX IMVI melanoma
# ACHN renal = tested on: ACHN renal
# MCF7 breast = tested on: MCF7 breast
# HT29 colon = tested on: HT29 colon
# K-562 leukemia = tested on: K-562 leukemia
# HCT-15 colon = tested on: HCT-15 colon
# SNB-75 CNS = tested on: SNB-75 CNS
# SF-295 CNS = tested on: SF-295 CNS
# NCI-H522 lung = tested on: NCI-H522 lung
# SN12C renal = tested on: SN12C renal
# SK-OV-3 ovarian = tested on: SK-OV-3 ovarian
# SK-MEL-28 melanoma = tested on: SK-MEL-28 melanoma
# MDA-N = tested on: MDA-N
# 786-0 renal = tested on: 786-0 renal
# M14 melanoma = tested on: M14 melanoma
# A549 NSCLC = tested on: A549 NSCLC
# MDA-MB-231 breast = tested on: MDA-MB-231 breast
# OVCAR-4 ovarian = tested on: OVCAR-4 ovarian
# OVCAR-3 ovarian = tested on: OVCAR-3 ovarian
# EKVX NSCLC = tested on: EKVX NSCLC
# MOLT-4 leukemia = tested on: MOLT-4 leukemia
# SF-268 CNS = tested on: SF-268 CNS
# MDA-MB-435 = tested on: MDA-MB-435
# UO-31 renal = tested on: UO-31 renal
# NCI/ADR-RES ovarian = tested on: NCI/ADR-RES ovarian
# NCI-H226 lung = tested on: NCI-H226 lung
# MALME-3M melanoma = tested on: MALME-3M melanoma
# CAKI-1 renal = tested on: CAKI-1 renal
# HCT-116 colon = tested on: HCT-116 colon
# HOP-62 NSCLC = tested on: HOP-62 NSCLC
# DU-145 prostate = tested on: DU-145 prostate
# T-47D breast = tested on: T-47D breast
# SNB-19 CNS = tested on: SNB-19 CNS
# UACC-62 melanoma = tested on: UACC-62 melanoma
# KM12 colon = tested on: KM12 colon
# SR leukemia = tested on: SR leukemia
# SK-MEL-5 melanoma = tested on: SK-MEL-5 melanoma
# UACC-257 melanoma = tested on: UACC-257 melanoma
# PC-3 prostate = tested on: PC-3 prostate
# RXF 393 renal = tested on: RXF 393 renal
# A498 renal = tested on: A498 renal
# U251 CNS = tested on: U251 CNS
# COLO 205 colon = tested on: COLO 205 colon
# HCC-2998 colon = tested on: HCC-2998 colon
# HOP-92 NSCLC = tested on: HOP-92 NSCLC
# HL-60(TB) leukemia = tested on: HL-60(TB) leukemia
# NCI-H460 lung = tested on: NCI-H460 lung
# NCI-H23 lung = tested on: NCI-H23 lung
# TK-10 renal = tested on: TK-10 renal
# IGROV1 ovarian = tested on: IGROV1 ovarian
structure (smiles),measurement,setting,value
CC1(C)Cc2c(cnn2-c2ccc(C(F)(F)F)cc2)-c2nc(-c3ccc(O)cc3)[nH]c21,TGI,SW-620 colon,51.5 µM
same,TGI,OVCAR-8 ovarian,58.2 µM
same,TGI,OVCAR-5 ovarian,39.1 µM
same,TGI,BT-549 breast,28.5 µM
same,TGI,CCRF-CEM leukemia,11.2 µM
same,TGI,LOX IMVI melanoma,43 µM
same,TGI,ACHN renal,28.5 µM
same,TGI,MCF7 breast,30.7 µM
same,TGI,HT29 colon,17.4 µM
same,TGI,K-562 leukemia,70.2 µM
same,TGI,HCT-15 colon,25.8 µM
same,TGI,SNB-75 CNS,21 µM
same,TGI,SF-295 CNS,38 µM
same,TGI,NCI-H522 lung,26.2 µM
same,TGI,SN12C renal,31.8 µM
same,TGI,SK-OV-3 ovarian,45.3 µM
same,TGI,SK-MEL-28 melanoma,30.9 µM
same,TGI,MDA-N,38.6 µM
same,TGI,786-0 renal,12.6 µM
same,TGI,M14 melanoma,33.9 µM
same,TGI,A549 NSCLC,38.6 µM
same,TGI,MDA-MB-231 breast,40.7 µM
same,TGI,OVCAR-4 ovarian,29.2 µM
same,TGI,OVCAR-3 ovarian,29.4 µM
same,TGI,EKVX NSCLC,42.9 µM
same,TGI,MOLT-4 leukemia,22.7 µM
same,TGI,SF-268 CNS,28.5 µM
same,TGI,MDA-MB-435,37.8 µM
same,TGI,UO-31 renal,36.2 µM
same,TGI,NCI/ADR-RES ovarian,45 µM
same,TGI,NCI-H226 lung,52.3 µM
same,TGI,MALME-3M melanoma,29.7 µM
same,TGI,CAKI-1 renal,34.6 µM
same,TGI,HCT-116 colon,28.4 µM
same,TGI,HOP-62 NSCLC,39.6 µM
same,TGI,DU-145 prostate,31.6 µM
same,TGI,T-47D breast,38.5 µM
same,TGI,SNB-19 CNS,86.1 µM
same,TGI,UACC-62 melanoma,31 µM
same,TGI,KM12 colon,33.9 µM
same,TGI,SR leukemia,28.7 µM
same,TGI,SK-MEL-5 melanoma,34 µM
same,TGI,UACC-257 melanoma,34.4 µM
same,TGI,PC-3 prostate,33.3 µM
same,TGI,RXF 393 renal,15.6 µM
same,TGI,A498 renal,43.7 µM
same,TGI,U251 CNS,25.2 µM
same,TGI,COLO 205 colon,35.6 µM
same,TGI,HCC-2998 colon,30 µM
same,TGI,HOP-92 NSCLC,45.1 µM
same,TGI,HL-60(TB) leukemia,23 µM
same,TGI,NCI-H460 lung,33.2 µM
same,TGI,NCI-H23 lung,41.2 µM
same,TGI,TK-10 renal,35.3 µM
same,TGI,IGROV1 ovarian,40.1 µM
